Measurements published in article PMC12030706, “Novel ^177Lu-Labeled [Thz^14]Bombesin(6–14) Derivatives with Low Pancreas Accumulation for Targeting Gastrin-Releasing Peptide Receptor-Expressing Cancer” (Pharmaceuticals, 2025).

Tests used:
PC-3 tumor xenografts = conditions: in vivo, 1 h; cited from earlier work
GRPR (PC-3 cells) = molecular target: T1, GRPR (PC-3 cells) (Homo sapiens, UniProt P30550); assay: Fluorometric intracellular calcium release assay; type: cell-based; conditions: 50 nM, n = 3
T1 construct: GRPR-expressing prostate cancer PC-3 cells; host or cells: PC-3 prostate adenocarcinoma cells
T1 sequence (P30550 whole entry): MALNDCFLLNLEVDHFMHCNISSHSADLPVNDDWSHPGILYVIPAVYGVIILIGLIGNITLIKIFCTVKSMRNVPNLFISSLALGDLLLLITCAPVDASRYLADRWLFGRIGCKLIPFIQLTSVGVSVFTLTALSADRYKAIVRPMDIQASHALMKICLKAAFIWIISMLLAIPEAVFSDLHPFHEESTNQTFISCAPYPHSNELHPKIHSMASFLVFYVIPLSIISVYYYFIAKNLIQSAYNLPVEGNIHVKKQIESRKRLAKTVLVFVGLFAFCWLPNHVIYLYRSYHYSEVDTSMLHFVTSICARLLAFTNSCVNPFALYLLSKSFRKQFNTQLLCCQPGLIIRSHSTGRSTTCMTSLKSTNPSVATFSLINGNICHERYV
Procedure: The antagonist/agonist characteristics of Lu-TacsBOMB5, Lu-LW01110, and Lu-LW01142 were determined following previously published procedure. A 96-well clear bottom black plate was seeded with 5 × 10^4 PC-3 prostate cancer cells/100 μL/well 24 h prior to the assay. The calcium-sensitive dye (FLIPR Calcium 6 assay kit from Molecular Devices, San Jose, CA, USA) in loading buffer (100 μL/well) was added into the 96-well plate, followed by 1 h incubation at 37 °C. After that, the plate was transferred into a FlexStation 3 microplate reader (Molecular Devices, San Jose, CA, USA). Lu-complexed nonradioactive standard (50 nM), [D-Phe^6,Leu-NHEt^13,des-Met^14]Bombesin(6–14) (50 nM, antagonist control), bombesin (50 nM, agonist control), adenosine triphosphate (ATP, 50 nM, positive control), or DPBS (blank control) was added, and the fluorescent signals were acquired for 2 min (λEx = 485 nm; λEm = 525 nm; n = 3). The relative fluorescent unit (RFU = max − min) was calculated to determine the agonistic/antagonistic characteristics for the tested ligands.

Compound	uptake in PC-3 tumor xenografts (PC-3 tumor xenografts)	Ca2+ efflux (RFU = max − min) (GRPR (PC-3 cells))
^68Ga-DOTA-Pip-[D-Phe^6,Tle^10,NMe-His^12,Thz^14]Bombesin(6–14) [[^68Ga]Ga-LW01110]	16.6 ± 1.60 %ID/g	
bombesin		235 ± 15.2 RFUs
Nc1ncnc2c1ncn2[C@@H]1O[C@H](COP(=O)(O)OP(=O)(O)OP(=O)(O)O)[C@@H](O)[C@H]1O [ATP, adenosine triphosphate]		150 ± 40.7 RFUs
[D-Phe^6,Leu-NHEt^13,des-Met^14]Bombesin(6–14)		29.7 ± 2.73 RFUs
^68Ga-DOTA-Pip-[D-Phe^6,NMe-Gly^11,Leu^13ψThz^14]Bombesin(6–14) [[^68Ga]Ga-TacsBOMB5]	15.7 ± 2.17 %ID/g	
